Measured values published in patent US20260191786A1, “SOLID DOSAGE FORMS WITH HIGH ACTIVE AGENT LOADING” (Lonza Sales AG, priority 2018, published 2026).
≈ marks a conversion by molar mass, not a printed value. Read-outs that look alike come from different tables or passages of the source.

Columns and labels:
Format in all cases: physicochemical
[1] = Log P of the active agent
From the text: Log P: The Log P value of an active agent is defined as the base 10 logarithm of the ratio of (1) the active agent concentration in an octanol phase to (2) the active agent concentration in a water phase when the two phases are in equilibrium with each other, is a widely accepted measure of lipophilicity. The Log P value may be measured experimentally or calculated using methods known in the art. The Log P value may be estimated experimentally by determining the ratio of the drug solubility in octanol to the drug solubility in water. When using a calculated value for the Log P value, the highest value calculated using any generally accepted method for calculating Log P is used.

[2] = pKa (base) of the active agent
[3] = Crystalline and amorphous solubility of the active agent in SIF / gastric buffer

| pKa (base) [2] | Molecule | Log P [1] | pKa [2] | solubility ([3]; 0.5% SIF (simulated intestinal fluid), fassgf or other biorelevant, amorphous, 0.5% SIF, read-out: amorphous solubility in 0.5% SIF) [µg/mL] | solubility ([3]; gastric buffer (GB), simulated gastric fluid, thermodynamic from solid, crystalline, gastric buffer, read-out: crystalline solubility in gastric buffer (GB)) [µg/mL] |
| --- | --- | --- | --- | --- | --- |
| – | C#Cc1cccc(Nc2ncnc3cc(OCCOC)c(OCCOC)cc23)c1 [Erlotinib] | 2.8 | 5.3 | ~380 (≈ 966 µM) | 182 (≈ 463 µM) |
| 4.5 | Posaconazole | 4.5 | – | – | – |
